Consider 16 compounds from PubChem BioAssay AID256 (DTP/NCI, 2004).

Each structure is given as a SMILES string. Where “and” joins values, the source holds several entries; their conditions need not be identical. Identical values can stand only once. Toxic doses and inconclusive results are not listed.

The test system of this assay is CD2F1 mice, L1210 leukemia ip, survival T/C. Nature of the assay: NCI In Vivo Anticancer Drug Screen. Data for tumor model L1210 Leukemia (intraperitoneal) in CD2F1 (CDF1) mice. Particulars: higher = longer survival. A digest of the protocol: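 Activity against a transplanted murine tumor was judged by comparing the compound group with a vehicle group. The outcome in the treated animals was divided by that in the controls.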

Where [1] appears, read: endpoint: mean survival time, dose: 100.0 mg/kg/injection, schedule: Q01DX001 (ip), vehicle: saline.
The mark [2] stands for this setting: endpoint: mean survival time, dose: 400.0 mg/kg/injection, schedule: Q01DX001 (ip), vehicle: saline.
Setting [3] is: endpoint: mean survival time, dose: 100.0 mg/kg/injection, schedule: Q01DX001 (ip), vehicle: saline with Tween-80.
Where [4] appears, read: endpoint: mean survival time, dose: 100.0 mg/kg/injection, schedule: Q01DX009 (ip), vehicle: saline with Tween-80.
[5] abbreviates: endpoint: mean survival time, dose: 200.0 mg/kg/injection, schedule: Q01DX001 (ip), vehicle: saline with Tween-80.
Where [6] appears, read: endpoint: mean survival time, dose: 400.0 mg/kg/injection, schedule: Q01DX001 (ip), vehicle: saline with Tween-80.
The mark [7] stands for this setting: endpoint: mean survival time, dose: 100.0 mg/kg/injection, schedule: Q04DX003 (ip), vehicle: saline.
Setting [8] is: endpoint: mean survival time, dose: 200.0 mg/kg/injection, schedule: Q01DX009 (ip), vehicle: saline with Tween-80.
[9] abbreviates: endpoint: mean survival time, dose: 200.0 mg/kg/injection, schedule: Q04DX003 (ip), vehicle: saline.
Setting [10] is: endpoint: mean survival time, dose: 400.0 mg/kg/injection, schedule: Q04DX003 (ip), vehicle: saline.

For `CC(Br)C(=O)c1ccc(OC(=O)c2ccccc2)cc1` (configuration not stated), the T/C under setting [1] was 100 % of control; the T/C (endpoint: mean survival time, dose: 200.0 mg/kg/injection, schedule: Q01DX001 (ip), vehicle: saline) is 100 % of control; the T/C under setting [2] was 100 % of control.

`CC(CC1CC=CCC1)C(=O)c1ccccc1` (configuration not stated): the T/C is 100 % of control (endpoint: mean survival time, dose: 50.0 mg/kg/injection, schedule: Q04DX002 (ip), vehicle: saline with Tween-80); 100 % of control (endpoint: mean survival time, dose: 100.0 mg/kg/injection, schedule: Q04DX002 (ip), vehicle: saline with Tween-80); 93 % of control (endpoint: mean survival time, dose: 200.0 mg/kg/injection, schedule: Q04DX002 (ip), vehicle: saline with Tween-80); 89 % of control (endpoint: mean survival time, dose: 400.0 mg/kg/injection, schedule: Q04DX002 (ip), vehicle: saline with Tween-80).

As for `NC1CCCCC1N.Nc1c(N=Nc2ccc(-c3ccc(N=Nc4cc(S(=O)(=O)[O-])c5ccccc5c4N)cc3)cc2)cc(S(=O)(=O)[O-])c2ccccc12.[OH3+].[OH3+].[Pt+4]`, the T/C (endpoint: median survival time, dose: 3.12 mg/kg/injection, schedule: Q04DX003 (ip), vehicle: saline with Tween-80) is 108 % of control; the T/C (endpoint: median survival time, dose: 6.25 mg/kg/injection, schedule: Q04DX003 (ip), vehicle: saline with Tween-80) was 100 % of control; the T/C (endpoint: median survival time, dose: 12.5 mg/kg/injection, schedule: Q04DX003 (ip), vehicle: saline with Tween-80) was 102 % of control; the T/C (endpoint: median survival time, dose: 25.0 mg/kg/injection, schedule: Q04DX003 (ip), vehicle: saline with Tween-80) is 98 % of control; the T/C (endpoint: median survival time, dose: 50.0 mg/kg/injection, schedule: Q04DX003 (ip), vehicle: saline with Tween-80) is 106 % of control; the T/C (endpoint: median survival time, dose: 100.0 mg/kg/injection, schedule: Q04DX003 (ip), vehicle: saline with Tween-80) was 97 % of control. The T/C (endpoint: median survival time, dose: 200.0 mg/kg/injection, schedule: Q04DX003 (ip), vehicle: saline with Tween-80) is 100 % of control.

As to `N=C(N)c1ccc(Nc2ccc(C(=N)N)cc2)cc1`, the T/C is 96 % of control and 100 % of control (endpoint: mean survival time, dose: 3.0 mg/kg/injection, schedule: Q01DX009 (ip), vehicle: saline); 100 % of control and 101 % of control (endpoint: mean survival time, dose: 6.0 mg/kg/injection, schedule: Q01DX009 (ip), vehicle: saline); 93 % of control and 95 % of control (endpoint: mean survival time, dose: 12.0 mg/kg/injection, schedule: Q01DX009 (ip), vehicle: saline); 98 % of control (endpoint: mean survival time, dose: 24.0 mg/kg/injection, schedule: Q01DX009 (ip), vehicle: saline).

In the case of `COc1cccc2c1C(=O)c1c(O)c3c(c(O)c1C2=O)C[C@@](O)(C(=O)COC(=O)Cc1cccc2ccccc12)C[C@@H]3OC1CC(N)C(O)C(C)O1` (some centres not stated), the T/C is, setting by setting: (endpoint: mean survival time, dose: 0.5 mg/kg/injection, schedule: Q01DX009 (ip), vehicle: saline with Tween-80) 118 % of control; (endpoint: mean survival time, dose: 1.0 mg/kg/injection, schedule: Q01DX001 (ip), vehicle: other) 116 % of control; (endpoint: mean survival time, dose: 2.5 mg/kg/injection, schedule: Q01DX001 (ip), vehicle: saline with Tween-80) 117 % of control; (endpoint: mean survival time, dose: 5.0 mg/kg/injection, schedule: Q04DX003 (ip), vehicle: other) 152 % of control; (endpoint: mean survival time, dose: 8.0 mg/kg/injection, schedule: Q01DX009 (ip), vehicle: saline with Tween-80) 122 % of control; (endpoint: mean survival time, dose: 10.0 mg/kg/injection, schedule: Q04DX003 (ip), vehicle: saline with Tween-80) 151 % of control. Also, the T/C (endpoint: mean survival time, dose: 16.0 mg/kg/injection, schedule: Q01DX009 (ip), vehicle: saline with Tween-80) was 88 % of control and the T/C (endpoint: mean survival time, dose: 32.0 mg/kg/injection, schedule: Q01DX001 (ip), vehicle: other) is 90 % of control.

Consider `CN1C=Cc2ccccc2C1`, for which the T/C is 93 % of control under setting [3], 93 % of control under setting [4], 95 % of control under setting [5] and 93 % of control under setting [6].

In the case of `CC(=O)Nc1nc(CCl)cs1`, the T/C reads like this: (endpoint: mean survival time, dose: 100.0 mg/kg/injection, schedule: Q01DX001 (ip), vehicle: Klucel (hydroxypropylcellulose) (HPC)) 92 % of control; (endpoint: mean survival time, dose: 200.0 mg/kg/injection, schedule: Q01DX001 (ip), vehicle: Klucel (hydroxypropylcellulose) (HPC)) 87 % of control.

Take `CC(C)NC(=O)C1C=C2c3cccc4c3C(CN4)CC2N(C)C1` (configuration not stated): the T/C (endpoint: mean survival time, dose: 50.0 mg/kg/injection, schedule: Q01DX009 (ip), vehicle: saline with Tween-80) was 93 % of control; the T/C (endpoint: mean survival time, dose: 50.0 mg/kg/injection, schedule: Q04DX003 (ip), vehicle: saline) was 94 % of control; the T/C under setting [4] is 100 % of control; the T/C under setting [7] is 88 % of control; the T/C under setting [8] is 97 % of control; the T/C under setting [9] is 94 % of control.

Regarding `Cc1ccc2nc(-c3ccc(N=Cc4ccccc4O)cc3)sc2c1`, the T/C is 100 % of control (endpoint: mean survival time, dose: 12.5 mg/kg/injection, schedule: Q01DX009 (ip), vehicle: olive oil, sesame oil, peanut oil); 98 % of control (endpoint: mean survival time, dose: 25.0 mg/kg/injection, schedule: Q01DX009 (ip), vehicle: olive oil, sesame oil, peanut oil); 102 % of control (endpoint: mean survival time, dose: 50.0 mg/kg/injection, schedule: Q01DX009 (ip), vehicle: olive oil, sesame oil, peanut oil); 95 % of control (endpoint: mean survival time, dose: 100.0 mg/kg/injection, schedule: Q01DX009 (ip), vehicle: olive oil, sesame oil, peanut oil); 100 % of control (endpoint: mean survival time, dose: 200.0 mg/kg/injection, schedule: Q01DX009 (ip), vehicle: olive oil, sesame oil, peanut oil); 96 % of control (endpoint: mean survival time, dose: 400.0 mg/kg/injection, schedule: Q01DX009 (ip), vehicle: olive oil, sesame oil, peanut oil).

For `COc1nc(NC2OC(CO)C(O)C(O)C2O)cc(=O)n1C` (configuration not stated), the T/C was 98 % of control (endpoint: median survival time, dose: 12.5 mg/kg/injection, schedule: Q01DX005 (ip), vehicle: saline); 98 % of control (endpoint: median survival time, dose: 25.0 mg/kg/injection, schedule: Q01DX005 (ip), vehicle: saline); 100 % of control (endpoint: median survival time, dose: 50.0 mg/kg/injection, schedule: Q01DX005 (ip), vehicle: saline); 102 % of control (endpoint: median survival time, dose: 100.0 mg/kg/injection, schedule: Q01DX005 (ip), vehicle: saline); 102 % of control (endpoint: median survival time, dose: 200.0 mg/kg/injection, schedule: Q01DX005 (ip), vehicle: saline).

With `CCN1/C(=C/C=C/c2oc3ccc4ccccc4c3[n+]2CC)Oc2ccc3ccccc3c21`, the T/C (endpoint: mean survival time, dose: 9.5 mg/kg/injection, schedule: Q01DX001 (ip), vehicle: other) was 104 % of control; the T/C (endpoint: mean survival time, dose: 19.0 mg/kg/injection, schedule: Q01DX001 (ip), vehicle: other) is 112 % of control; the T/C (endpoint: mean survival time, dose: 38.0 mg/kg/injection, schedule: Q01DX001 (ip), vehicle: other) is 118 % of control.

On to `Cc1ccccc1N1C(=O)CSC1=S`, for which the T/C by setting is: under setting [4], 98 % of control; under setting [8], 106 % of control.

For `CC(C)=CC1C(C(=O)OCc2ccc(C)cc2C)C1(C)C` (configuration not stated), the T/C was 94 % of control (endpoint: mean survival time, dose: 50.0 mg/kg/injection, schedule: Q01DX001 (ip), vehicle: saline); 91 % of control under setting [1]; 96 % of control (endpoint: mean survival time, dose: 100.0 mg/kg/injection, schedule: Q01DX009 (ip), vehicle: saline); 87 % of control under setting [7]; 96 % of control (endpoint: mean survival time, dose: 200.0 mg/kg/injection, schedule: Q01DX009 (ip), vehicle: saline); 87 % of control under setting [9]. Besides, the T/C runs as follows: under setting [2], 100 % of control; (endpoint: mean survival time, dose: 400.0 mg/kg/injection, schedule: Q01DX009 (ip), vehicle: saline) 102 % of control; under setting [10], 94 % of control.

Regarding `Cc1cc(C2(c3ccc(O)c(C)c3)CCCCC2)ccc1O`, the T/C under setting [3] is 97 % of control; the T/C (endpoint: mean survival time, dose: 100.0 mg/kg/injection, schedule: Q01DX009 (ip), vehicle: Klucel (hydroxypropylcellulose) (HPC)) is 95 % of control; the T/C under setting [5] is 94 % of control; the T/C (endpoint: mean survival time, dose: 200.0 mg/kg/injection, schedule: Q01DX009 (ip), vehicle: Klucel (hydroxypropylcellulose) (HPC)) was 94 % of control; the T/C under setting [6] was 96 % of control; the T/C (endpoint: mean survival time, dose: 400.0 mg/kg/injection, schedule: Q01DX009 (ip), vehicle: Klucel (hydroxypropylcellulose) (HPC)) was 94 % of control.

Turning to `O=C(O)C1OC1c1ccccc1` (configuration not stated), the T/C runs as follows: under setting [4], 107 % of control; under setting [7], 91 % of control; under setting [8], 98 % of control; under setting [9], 100 % of control; (endpoint: mean survival time, dose: 400.0 mg/kg/injection, schedule: Q01DX009 (ip), vehicle: saline with Tween-80) 101 % of control; under setting [10], 97 % of control.

In the case of `O=c1[nH]cc(S(=O)(=O)Nc2ccccc2)c(=O)[nH]1`, the T/C reads like this: under setting [3], 88 % of control; under setting [6], 96 % of control.
